Experimental data from article PMC8887894, “Pyruvate:ferredoxin oxidoreductase and low abundant ferredoxins support aerobic photomixotrophic growth in cyanobacteria” (eLife, 2022).

Target: T1, SynLPD (dihydrolipoyl dehydrogenase, E3 subunit of the PDH complex) (Synechocystis sp. PCC 6803, UniProt P72740)
T1 construct: gene lpdA
T1 sequence (P72740 2-474): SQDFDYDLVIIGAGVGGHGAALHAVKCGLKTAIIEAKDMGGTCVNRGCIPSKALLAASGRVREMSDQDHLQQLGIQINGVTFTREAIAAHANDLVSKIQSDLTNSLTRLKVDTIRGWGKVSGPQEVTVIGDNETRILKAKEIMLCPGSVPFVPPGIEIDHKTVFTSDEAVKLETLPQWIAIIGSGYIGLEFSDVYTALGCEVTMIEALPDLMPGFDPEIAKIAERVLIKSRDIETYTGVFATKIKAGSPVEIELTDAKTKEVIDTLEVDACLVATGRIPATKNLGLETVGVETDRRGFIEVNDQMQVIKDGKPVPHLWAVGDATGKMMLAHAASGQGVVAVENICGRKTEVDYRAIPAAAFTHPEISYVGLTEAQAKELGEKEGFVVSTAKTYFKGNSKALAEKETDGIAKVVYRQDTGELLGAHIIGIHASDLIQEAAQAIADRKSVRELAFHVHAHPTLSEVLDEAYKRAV
Assay: NAD+ reduction at […] nm; Ki from slopes of Lineweaver-Burk plots
Assay type: biochemical

Ki: 38.3 µM
Structure (SMILES): NC(=O)C1=CN([C@@H]2O[C@H](COP(=O)(O)OP(=O)(O)OC[C@H]3O[C@@H](n4cnc5c(N)ncnc54)[C@H](O)[C@@H]3O)[C@@H](O)[C@H]2O)C=CC1 [NADH]
